Our source for the melting point values is a melting point compilation (Tetko et al.).

Turning to `Cc1ccc(-n2nc(C(=O)O)cc2-c2ccc(-c3ccccc3)cc2)cc1`, the melting point was 205 to 207 °C.

On to `OCC(NCc1ccccc1)C1CC1` (configuration not stated), for which the melting point lay in the range of 56 to 58 °C.

Regarding `CCOc1ccc(C(=O)NCC(=O)O)cc1OCC`, the melting point lay in the range of 119 to 122 °C.

`CNc1cnnc2ccccc12` had a melting point of 232 to 234 °C.

As to `Cc1ccc([N+](=O)[O-])c(OCCC(=O)O)c1`, the melting point is 134 to 136 °C.

Compound `O=S(=O)(NC1CC1)c1ccc(Cl)nc1` had a melting point of 94 to 96 °C.

Turning to `ClCc1nnc(-c2ccc(Br)s2)o1`, the melting point lay in the range of 109 to 111 °C.

`C#CCNS(=O)(=O)c1ccccc1` gave a melting point of 60 to 62 °C.

Take `Cn1cc[nH]c(=O)c1=O`: the melting point is 207 to 209 °C.

`COc1ncccc1O` returned a melting point of 64 to 66 °C.

In the case of `CC(C)C(NC(=O)CCc1ccccc1)C(=O)O` (configuration not stated), the melting point lay within 147 to 149 °C.

Regarding `Oc1ncnc2c(F)cc(Br)cc12`, the melting point is 299 to 301 °C.

In turn, `Nc1c(O)c(Cl)cc(Cl)c1Cl` displayed a melting point of 119 to 121 °C.

For the compound `O=C(O)C=Cc1ccc2ccccc2n1`, the melting point fell in the range of 169 to 171 °C.

On to `O=C(O)C1CC1c1cccc(Br)c1` (configuration not stated), for which the melting point fell in the range of 115 to 117 °C.

The compound `Cc1c(S(=O)(=O)Cl)cnn1-c1ccccn1` came in with a melting point of 53 to 55 °C.

As for `O=C(CCc1ccccc1)c1ccccc1O`, the melting point is 36 to 37 °C.

Regarding `Nc1ncc(Cc2cccc(Cl)c2Cl)s1`, the melting point was 140 to 142 °C.

As for `O=C(O)c1ccc(CNC(=O)C2CCCC2)cc1`, the melting point lay in the range of 228 to 230 °C.

`Nc1cc(S(=O)(=O)N2CCOCC2)ccc1N1CCCC1` displayed a melting point of 179 to 181 °C.

Turning to `Cc1cccc(-c2nc(CC(=O)O)cs2)c1`, the melting point was in the range of 110 to 112 °C.

For the compound `NC(=S)NCc1ccc(F)cc1`, the melting point fell in the range of 119 to 121 °C.

`O=C(CC1(C(=O)O)CCCC1)N1CCOCC1` displayed a melting point of 150 to 152 °C.

As to `Cc1n[nH]c(C)c1CCC(=O)O`, the melting point fell in the range of 169 to 171 °C.

`O=C(Nc1ccccc1)C(Cl)c1ccccc1` (configuration not stated) displayed a melting point of 150 to 152 °C.

With `COc1ccc(OC)c(C=NO)c1`, the melting point lay within 94 to 96 °C.

`Cc1cc(C(=O)O)c(N)cc1F` returned a melting point of 219 to 221 °C.

With `NCc1nnc2n1CCC2`, the melting point lay in the range of 20 to 22 °C.

In the case of `COC(=O)NC1CCC(O)CC1` (configuration not stated), the melting point lay in the range of 139 to 141 °C.

As for `CC(C)(N)CN1CCN(c2ccccc2)CC1`, the melting point lay in the range of 84 to 86 °C.

Turning to `CCc1ccc(Nc2nnc(SCC(=O)O)s2)cc1`, the melting point fell in the range of 250 to 252 °C.

Regarding `CC(C)c1ccc(-c2nnn[nH]2)cc1`, the melting point fell in the range of 186 to 188 °C.

For the compound `Cc1ccc(C(N)C(=O)O)cc1` (configuration not stated), the melting point was in the range of 269 to 271 °C.

`O=C(O)C1CC(=O)N(c2ccccc2F)C1` (configuration not stated): the melting point fell in the range of 130 to 135 °C.

In turn, `CC(C)NC(=O)c1cn[nH]c1N` registered a melting point of 179 to 181 °C.

As for `COC(=O)c1ccc(Cl)nc1C`, the melting point fell in the range of 30 to 32 °C.

On to `O=Cc1cn2cccc(F)c2n1`, for which the melting point fell in the range of 163 to 165 °C.

`CN(C)C(=O)c1ccccc1O` gave a melting point of 161 to 163 °C.

Compound `Cc1cc(N)nn1-c1ccccc1Cl` showed a melting point of 63 to 65 °C.

With `Nc1ccc2nc(NC(=O)CN3CCOCC3)sc2c1`, the melting point fell in the range of 228 to 230 °C.

In turn, `Cc1csc(SCc2ccccc2C(=O)O)n1` had a melting point of 159 to 162 °C.

In turn, `CC(C)NO` displayed a melting point of 73 to 75 °C.

For `NNc1ccc([N+](=O)[O-])cc1S(=O)(=O)Nc1ccccc1Cl`, the melting point lay in the range of 220 to 229 °C.

Compound `N#Cc1ccc2ocnc2c1` showed a melting point of 87 to 89 °C.

The compound `CCOc1ccc(C(C)=O)cc1[N+](=O)[O-]` registered a melting point of 54 to 56 °C.

Compound `Cc1cc(CC(=O)O)c(C)n1-c1ccc(Cl)cc1` displayed a melting point of 118 to 120 °C.

Take `Cc1sc2nc(CCCC(=O)O)[nH]c(=O)c2c1C`: the melting point lay within 243 to 245 °C.

The compound `COc1ccc(S(=O)(=O)Nc2ccccc2C(=O)O)cc1` registered a melting point of 183 to 185 °C.

`CCOc1cc(C(=O)O)ccc1OCC(=O)OC`: the melting point lay within 129 to 131 °C.

`CN1CCN(C(=O)C2CCN(C(=O)OC(C)(C)C)CC2)CC1`: the melting point was 95 to 97 °C.

Consider `O=C(c1ccc(F)cc1)c1cnc2ccccc2c1`, for which the melting point was in the range of 89 to 91 °C.

`COc1ccc(F)cc1[N+](=O)[O-]` came in with a melting point of 62 to 64 °C.

Compound `O=C(O)c1c[nH]nc1-c1ccc(Cl)cc1` had a melting point of 276 to 278 °C.

In the case of `COc1ccc(CBr)cc1C#N`, the melting point was in the range of 119 to 121 °C.

For the compound `COC(=O)c1cc(S(=O)(=O)Cl)ccc1C`, the melting point lay within 44 to 46 °C.

Turning to `O=C(O)c1cccnc1SC(F)F`, the melting point lay within 184 to 188 °C.

In turn, `Cc1cc(C=O)c(C)n1-c1ccc(F)cc1F` yielded a melting point of 133 to 135 °C.

`O=c1c(Cl)c(Cl)cnn1-c1cccc(C(F)(F)F)c1` displayed a melting point of 92 to 94 °C.

`CS(=O)(=O)Nc1cc(C(=O)O)ccc1Cl` registered a melting point of 275 to 277 °C.

The compound `CC1(C)CC(=O)c2sc(N)nc2C1` registered a melting point of 212 to 214 °C.

With `COc1cc(C(=O)O)ccc1OCc1ccccc1Cl`, the melting point is 143 to 145 °C.

Compound `CC(C)N1C2CCCC1CC(O)C2` (configuration not stated) came in with a melting point of 59 to 61 °C.

`O=C(CCl)NCC1(c2ccccc2)CCCC1`: the melting point lay in the range of 74 to 76 °C.

The compound `O=C(O)c1ncoc1-c1ccco1` showed a melting point of 171 to 173 °C.

Take `CC(C)C(C(=O)O)N1CCN(C)CC1` (configuration not stated): the melting point is 195 to 197 °C.

On to `O=C1C(=O)N(Cc2ccccc2Cl)c2ccccc21`, for which the melting point lay in the range of 130 to 132 °C.

In turn, `O=C(O)c1cccnc1-n1cccn1` displayed a melting point of 106 to 108 °C.

The compound `O=C(O)C1(c2ccc(F)cc2)CC1` gave a melting point of 126 to 128 °C.

Compound `Nc1cccc(Cn2cnnc2)c1` displayed a melting point of 139 to 141 °C.

`O=C(O)c1ccc(-c2cc(Cl)cc(Cl)c2)s1` showed a melting point of 190 to 195 °C.

Take `Cc1ccc(-n2[nH]c(C(=O)O)c(CCO)c2=O)cc1`: the melting point is 199 to 201 °C.

`COC(=O)CCSc1ccc([N+](=O)[O-])cc1C(=O)O` came in with a melting point of 165 to 167 °C.

With `O=C(Nc1cccs1)OCC(F)(F)F`, the melting point fell in the range of 58 to 60 °C.

The compound `Cc1ccccc1Nc1nnc(S)s1` registered a melting point of 230 to 232 °C.

Consider `Sc1nnc(N2CCCCC2)s1`, for which the melting point was in the range of 165 to 167 °C.

Consider `Cc1cc(C(=O)NN)c(C)o1`, for which the melting point lay within 132 to 134 °C.

In turn, `Cc1cc(C=O)c(C)n1C1CCCCC1` had a melting point of 75 to 77 °C.

On to `NNC(=O)CO`, for which the melting point fell in the range of 90 to 92 °C.

Regarding `CCC(C)Nc1ccc(C(N)=O)cc1` (configuration not stated), the melting point was 113 to 115 °C.

Consider `O=C(Cn1cnnn1)N1CCNCC1`, for which the melting point was 143 to 145 °C.

Take `Cc1nn(-c2ccccc2)c(N2CCCC2)c1C=O`: the melting point was in the range of 71 to 73 °C.

As to `Cc1c(C(=O)O)cccc1S(=O)(=O)Cl`, the melting point is 169 to 171 °C.

In turn, `CCn1c(CCC(=O)O)nc2cc(S(N)(=O)=O)ccc21` had a melting point of 263 to 265 °C.

Take `Cc1cc(S(N)(=O)=O)c(F)cc1F`: the melting point lay within 97 to 99 °C.

For the compound `NS(=O)(=O)c1cccc2cccnc12`, the melting point was 183 to 185 °C.

`CNc1cccc([N+](=O)[O-])c1` came in with a melting point of 65 to 67 °C.

As to `Cc1ccccc1-c1nnc(S)o1`, the melting point was in the range of 188 to 190 °C.

What is called melting point is the temperature of the solid-liquid transition.
